Literature values in patent publication US11464797B2, “Use of vitamin composition in preparing drug for preventing, treating, or delaying Alzheimer's disease” (Zensun (Shanghai) Science & Technology, Co., Ltd., priority 2017, dated 2022).

Columns and labels:
ATP level in CA1 area = settings: after 10 min of hypoxia in rats, magnesium ion treated brain slices; untreated 16% of normal
[1] = tested on: patients with mild cognitive impairment (MCI); settings: long-term intake (6-48 months)

Compound	ATP level, of normal brain slices (ATP level in CA1 area)	cognitive function [1]
[Mg+2] [magnesium ion, magnesium]	32%	
vitamin E		effectively improve cognitive function
